Test results as given in patent publication US4710505A, “Asymmetric heterocyclic ester derivatives of 1,4-dihydropyridine-3,5-dicarboxylic acids” (Societe de Recherches Industrielles (S.O.R.I.), priority 1985, dated 1987).
Where two headings read alike, the source gives them in different places.

Tests used:
rabbit aorta = assay: Relaxing effect on isolated rabbit aorta contracted (depolarized) by KCl; conditions: Oryctolagus cuniculus, read-out: ED50 (dose causing a 50% relaxation of the precontracted arteries)
Description: I. RELAXING EFFECT ON ISOLATED RABBIT AORTA CONTRACTED BY KCl
The thoracic aortae of male rabbits are removed, cut into narrow strips and placed under tension in an oxygenated survival medium. The contractions of these arteries, the amplitude of which is measured using a myograph, are induced by a 127 mM solution of KCl [R. Towart et al., Arzneim.-Forsch./Drug Res. 32, 338-346 (1982)]. The compounds studied are dissolved in a mixture of anhydrous ethanol and double distilled water (1:1) v/v, the percentage of ethanol in the baths being less than or equal to 0.3% at the end of the experiment. When the contraction plateau is reached, the compound is added to the medium in increasing doses every 15 minutes.

in vivo = conditions: rat, intravenous, male Wistar rats weighing 300 g
Description: The LD50 was determined by intravenous administration to male Wistar rats weighing 300 g.

[1] = test system: spontaneously hypertensive rats; assay: Antihypertensive activity in spontaneously hypertensive rats, oral administration; type: in vivo; conditions: for change in vivo at 30 mg/kg / change in vivo at 10 mg/kg: Rattus norvegicus
Description: Spontaneously hypertensive rats aged between 16 and 20 weeks are used. The systolic pressure is measured by plethysmography and the heart rate is obtained from the pressure graph. The compounds studied are administered orally.

[2] = test system: spontaneously hypertensive rats; assay: Antihypertensive activity in spontaneously hypertensive rats, intravenous administration; type: in vivo; conditions: single i.v. dose; Ex. 2 30, Ex. 7 100, Ex. 8 300, Ex. 11 30 and 100 μg/kg; versus nicardipine and nifedipine
Source text: 2. Intravenous administration
Spontaneously hypertensive rats aged between 16 and 20 weeks are used. They are anesthetized with diethyl ether, a cannula is inserted into the caudal artery to measure the arterial pressure and a catheter is inserted into the right jugular vein to administer the compounds as described previously (L. S. Watson and L. T. Ludden, New Antihypertensive Drugs, pages 87-96, Spectrum Publication, Inc., 1976).
Each curve C relates to the control group receiving only the vehicle and each curve T relates to the treated group [n (number of animals per group)=4-7]. The said groups are compared either by analysis of variance, if the variances are homogenous (Bartlett's homocedasticity test), or by Kruskall-Wallis's non-parametric test (the statistically significant results being represented as follows:
FIGS. 1-6 relate to the variation in systolic pressure, expressed in mm Hg (1 mm Hg corresponds approximately to 1.333×10^2 Pa), as a function of time, expressed in minutes, and FIGS. 1a-6a relate to the variation in diastolic pressure, also expressed in mm Hg, as a function of time, expressed in minutes, for the treated groups (curves T) compared with the corresponding control groups (curves C), the doses of products administered being as follows:
FIGS. 2 and 2a: nicardipine at 30 μg/kg i.v.,
FIGS. 3 and 3a: Example 2 at 30 μg/kg i.v.,
FIGS. 4 and 4a: Example 7 at 100 μg/kg i.v.,
FIGS. 5 and 5a: Example 8 at 300 μg/kg i.v., and
FIGS. 6 and 6a: Example 11 at 30 and 100 μg/kg i.v. (curves T1 and T2).

anesthetized dogs = assay: Hemodynamic effects on anesthetized dogs, intraduodenal administration; type: in vivo, Mongrel dogs; conditions: for % variation T.P.R. (total peripheral resistances) / duration of the effect, T.P.R. (total peripheral resistances): calculated
Description: III. HEMODYNAMIC EFFECTS ON ANESTHETIZED DOGS Mongrel dogs are anesthetized with pentobarbital sodium (25 mg/kg i.v.). Each animal is placed under artificial respiration and a catheter is introduced into the aorta to measure the arterial pressure. The outputs of the aorta (O. Aor.), right femoral artery (O. Fem.) and left coronary artery (descending part) (O. Cor.) are measured continuously by means of electromagnetic rings. The total peripheral resistances (T.P.R.) are also calculated. […]

[3] = rabbit aorta depolarized by 127 mM KCl
[4] = 30 mg/kg, read-out: % variation Heart rate
[5] = 30 mg/kg, read-out: % variation Systolic pressure
[6] = 0.5 mg/kg, versus nicardipine and nifedipine

Compound | EC50 (rabbit aorta; [3]) | LD50 (in vivo) | change in vivo at 30 mg/kg [1, 4] | change in vivo at 30 mg/kg [1, 5] | duration of the effect, Systolic pressure ([1]; 30 mg/kg) | further results
COC(=O)C1=C(C)NC(C)=C(C(=O)OCC2COCO2)C1c1cccc([N+](=O)[O-])c1 (racemic) [Example 3] | 43 nM | – | – | – | – | –
COC(=O)C1=C(C)NC(C)=C(C(=O)OCCC2COC(C)(C)O2)C1c1cccc([N+](=O)[O-])c1 (racemic) [Example 4, methyl 2-[(2,2-dimethyl-1,3-dioxolan-4-yl)ethyl]1,4-dihydro-2,6-dimethyl-4-(3-nitrophenyl)pyridine-3,5-dicarboxylate] | 32 nM | – | – | – | – | –
COC(=O)C1=C(C)NC(C)=C(C(=O)OCC2CSC(C)(C)O2)C1c1cccc([N+](=O)[O-])c1 (racemic) [Example 6] | 35 nM | 34.2 mg/kg | 21.4% | -35.1 ± 9.2% | – | –
COC(=O)C1=C(C)NC(C)=C(C(=O)OCC2COC(C)(c3ccccc3)O2)C1c1cccc([N+](=O)[O-])c1 (racemic) [Example 7] | – | 17.8 mg/kg | 36.4% | -40.5 ± 5.1% | > 24 h | duration of the antihypertensive effect (in words) [2]: notably longer than that of nicardipine and nifedipine
COC(=O)C1=C(C)NC(C)=C(C(=O)OCC2COC(c3ccccc3)(c3ccccc3)O2)C1c1cccc([N+](=O)[O-])c1 (racemic) [Example 8] | > 5000 nM | 44.4 mg/kg | 12.4% | -37 ± 9% | > 24 h | duration of the antihypertensive effect (in words) [2]: notably longer than that of nicardipine and nifedipine
COC(=O)C1=C(C)NC(C)=C(C(=O)OCC2COC(C)(c3ccc(Cl)cc3Cl)O2)C1c1cccc([N+](=O)[O-])c1 (racemic) [Example 11] | > 5000 nM | 38.9 mg/kg | 34% | -54 ± 5.9% | > 24 h | duration of the antihypertensive effect (in words) [2]: notably longer than that of nicardipine and nifedipine
COC(=O)C1=C(C)NC(C)=C(C(=O)OCC2(C)OCCO2)C1c1cccc([N+](=O)[O-])c1 (centres unmarked) [CP 1, methyl 2,2ethylenedioxypropyl 2,6dimethyl-4-(3-nitrophenyl)-1,4-dihydropyridine-3,5-dicarboxylate, reference compound] | 250 nM | – | 0% | -11.6 ± 6% | 0 h | –
COC(=O)C1=C(C)NC(C)=C(C(=O)OCC2COC(C)(C)O2)C1c1cccc([N+](=O)[O-])c1 (centres unmarked) [Example 1, methyl (2,2-dimethyl-1,3-dioxolan-4-yl)methyl 1,4-dihydro-2,6-dimethyl-4-(3-nitrophenyl)pyridine-3,5-dicarboxylate] | 31 nM | 22.5 mg/kg | 16.4% | -28.4 ± 7.3% | – | % variation D.P. (diastolic pressure) (anesthetized dogs; 0.5 mg/kg): -42.6%; % variation O. Aor. (output of the aorta) (anesthetized dogs; 0.5 mg/kg): +124%; % variation O. Cor. (output of left coronary artery) (anesthetized dogs; 0.5 mg/kg): +73.6%; % variation O. Fem. (output of right femoral artery) (anesthetized dogs; 0.5 mg/kg): +114%; duration of the effect, D.P. (diastolic pressure) (anesthetized dogs; 0.5 mg/kg): 120 min; duration of the effect, O. Aor. (output of the aorta) (anesthetized dogs; 0.5 mg/kg): 120 min; duration of the effect, O. Fem. (output of right femoral artery) (anesthetized dogs; 0.5 mg/kg): 270 min; % variation T.P.R. (total peripheral resistances) (anesthetized dogs; 0.5 mg/kg): -65%; duration of the effect, T.P.R. (total peripheral resistances) (anesthetized dogs; 0.5 mg/kg): 300 min; cardiac, femoral and coronary outputs (in words) (anesthetized dogs; [6]): increased for a longer time and to a greater extent; drop in total peripheral resistances (in words) (anesthetized dogs; [6]): greater drop in total peripheral resistances than nicardipine and nifedipine; duration of drop in total peripheral resistances (in words) (anesthetized dogs; [6]): considerably longer
COC(=O)C1=C(C)NC(C)=C(C(=O)OCC2COC3(CCCC3)O2)C1c1cccc([N+](=O)[O-])c1 (centres unmarked) [Example 5, methyl (1,4-dioxaspiro[4,4]nonan-2-yl)methyl 1,4-dihydro-2,6-dimethyl-4-(3-nitrophenyl)pyridine-3,5-dicarboxylate] | – | – | 19.3% | -40.4 ± 9.4% | – | duration of the effect, Heart rate ([1]; 30 mg/kg): 4 h
COC(=O)C1=C(C)NC(C)=C(C(=O)OCC2COC(c3ccccc3)(C(F)(F)F)O2)C1c1cccc([N+](=O)[O-])c1 (centres unmarked) [Example 12] | 5000 nM | – | – | – | – | duration of the effect, Systolic pressure ([1]; 10 mg/kg): > 24 h; change in vivo at 10 mg/kg ([1]; 10 mg/kg, read-out: % variation Heart rate): 31.2%; change in vivo at 10 mg/kg ([1]; 10 mg/kg, read-out: % variation Systolic pressure): -41.4 ± 10%
COC(=O)C1=C(C)NC(C)=C(C(=O)OCC2COC(C(F)(F)F)(C(F)(F)F)O2)C1c1cccc([N+](=O)[O-])c1 (centres unmarked) [Example 13] | > 5000 nM | – | 25% | – | > 24 h | –
COC(=O)C1=C(C)NC(C)=C(C(=O)OCC2COC(c3ccccc3)O2)C1c1cccc([N+](=O)[O-])c1 (centres unmarked) [Example 14] | > 5000 nM | – | 19.9% | -58.4 ± 32.9% | > 24 h | duration of the effect, Heart rate ([1]; 30 mg/kg): > 24 h
COC(=O)C1=C(C)NC(C)=C(C(=O)OCCN(C)Cc2ccccc2)C1c1cccc([N+](=O)[O-])c1 (centres unmarked) [nicardipine, methyl 2-(N-methyl-N-benzylamino)ethyl 1,4-dihydro-2,6-dimethyl-4-(3-nitrophenyl)pyridine-3,5-dicarboxylate, reference compound] | 26 nM | 11.8 mg/kg | 21.3% | -46.2 ± 6.8% | – | % variation D.P. (diastolic pressure) (anesthetized dogs; 0.5 mg/kg): -34.5%; % variation O. Aor. (output of the aorta) (anesthetized dogs; 0.5 mg/kg): +25%; % variation O. Cor. (output of left coronary artery) (anesthetized dogs; 0.5 mg/kg): +62.2%; % variation O. Fem. (output of right femoral artery) (anesthetized dogs; 0.5 mg/kg): +70.6%; duration of the effect, D.P. (diastolic pressure) (anesthetized dogs; 0.5 mg/kg): 150 min; % variation T.P.R. (total peripheral resistances) (anesthetized dogs; 0.5 mg/kg): -40.5%; duration of the effect, T.P.R. (total peripheral resistances) (anesthetized dogs; 0.5 mg/kg): 90 min
COC(=O)C1=C(C)NC(C)=C(C(=O)OC)C1c1ccccc1[N+](=O)[O-] [nifedipine, dimethyl 1,4-dihydro-2,6-dimethyl-4-(2-nitrophenyl)pyridine-3,5-dicarboxylate, reference compound] | – | – | 35.4% | -35.2 ± 4.7% | – | % variation D.P. (diastolic pressure) (anesthetized dogs; 0.35 mg/kg): -44.2%; % variation O. Aor. (output of the aorta) (anesthetized dogs; 0.35 mg/kg): +20.5%; % variation O. Cor. (output of left coronary artery) (anesthetized dogs; 0.35 mg/kg): +66.4%; % variation O. Fem. (output of right femoral artery) (anesthetized dogs; 0.35 mg/kg): +76.4%; duration of the effect, D.P. (diastolic pressure) (anesthetized dogs; 0.35 mg/kg): 240 min; duration of the effect, O. Fem. (output of right femoral artery) (anesthetized dogs; 0.35 mg/kg): 10 min; % variation T.P.R. (total peripheral resistances) (anesthetized dogs; 0.35 mg/kg): -48.6%; duration of the effect, T.P.R. (total peripheral resistances) (anesthetized dogs; 0.35 mg/kg): 180 min; EC50 (rabbit aorta): 22 nM
